Columns and labels:
[1] = system: His RNA / RNA binding protein; test: Filter binding competition assay, His RNA; conditions: increasing concentrations of unlabeled RNA
Experimental: (§1) All binding reactions were performed in 96-well v-bottom plates in a final volume of 10 μl. The assays were constituted and performed as described below. Specifically, assays were performed by (1) forming a binding solution including RNA molecules, 7.5 mM BTP at pH 8.5, 10 mM KCl, 5 mM MgCl2, 0.2 mM DTT, and 10% glycerol, (2) heating the binding solution to denature the RNA molecules, (3) cooling the binding solution, (4) adding RNA binding proteins to the binding solution, (5) loading the binding solution onto a filter, and (6) detecting the amount RNA retain on the filter.
To more fully test the filter assay, competitions were performed with U1 and His RNAs as well. U1 RNA has the sequence AAUCCAUUGCAC UCCGGAUUU (SEQ ID NO:10; M14587). His RNA has the sequence […] (SEQ ID NO:11; X57138). […] The results of the U1 and His filter assay competitions reflect the ability of the assay to detect low affinity as well as higher affinity binding interactions.
Competition studies have been performed using the filter assay in which unlabeled wild-type or mutant RNA is added to the reaction at 100 to 10,000 times the concentration of ^32P-RNA to compete for the protein binding of the radiolabeled RNA. […] In this case, the mutant RNA has a weak binding affinity for the RNA binding protein. […]

[2] = system: U1 RNA / RNA binding protein (K562 extract); test: Filter binding competition assay, U1 RNA; conditions: increasing concentrations of unlabeled RNA
Description: FIG. 2 is a graph of the amount of radioactively labeled RNA retained on a filter (expressed in percent of the amount of RNA retained on a filter in a reference binding solution) following loading of various binding solutions. All of the binding solutions contained radioactively labeled U1 RNA either alone or including various other components. The first two columns represent binding solutions without RNA binding protein. The remaining columns represent binding solution containing RNA binding protein (K562 extract). […] In this instance, the U1 mutant interacts with less affinity than does the wild type sequence.
as §1
To more fully test the filter assay, competitions were performed with U1 and His RNAs as well. U1 RNA has the sequence AAUCCAUUGCAC UCCGGAUUU (SEQ ID NO:10; M14587). His RNA has the sequence […] […]

[3] = system: IRE RNA / RNA binding protein (K562 protein extract); test: High throughput filter binding assay, IRE RNA with K562 protein extract; conditions: increasing concentrations: hemin 1 to 100 μM, FeCl3 and desferroxiamine 1 μM to 1 mM
Description: FIG. 3 is a graph of the amount of radioactively labeled RNA retained on a filter (expressed in percent of the amount of RNA retained on a filter in a reference binding solution) following loading of various binding solutions. All of the binding solutions contained radioactively labeled IRE RNA either alone or including various other components. The first column represents a binding solution without RNA binding protein. The remaining columns represent binding solution containing RNA binding protein (K562 extract).
FIG. 5 is a graph of the amount of radioactively labeled RNA retained on a filter (expressed in percent of the amount of RNA retained on a filter in a reference binding solution) following loading of various binding solutions. Alternate columns correspond to binding solutions containing radioactively labeled AUUUA RNA or IRE RNA, either alone or including various other components. The first two column represents binding solutions without RNA binding protein. The remaining columns represent binding solution containing RNA binding protein (K562 extract). Columns 5 through 40 correspond to binding solutions including the indicated amount of the indicated test compound.
All binding reactions were performed in 96-well v-bottom plates in a final volume of 10 μl. The assays were constituted and performed as described below. Specifically, assays were performed by (1) forming a binding solution including RNA molecules, 7.5 mM BTP at pH 8.5, 10 mM KCl, 5 mM MgCl2, 0.2 mM DTT, and 10% glycerol, (2) heating the binding solution to denature the RNA molecules, (3) cooling the binding solution, (4) adding RNA binding proteins to the binding solution, (5) loading the binding solution onto a filter, and (6) detecting the amount RNA retain on the filter. […]
Binding assays were performed with wild-type IRE RNA and K562 protein extract in the presence of sources of iron or iron chelators to determine the ability of the filter assay to detect the modulation of binding interactions by small molecules. […] The reactions were analyzed by gel shifts to visualize the results of the filter assay. […]

[4] = system: AUUUA RNA / RNA binding protein (K562 extract); test: High throughput filter binding assay, 32P-labeled AUUUA RNA with K562 protein extract (exploratory library screen)
Description: FIG. 4 is a graph of the amount of radioactively labeled RNA retained on a filter (expressed in percent of the amount of RNA retained on a filter in a reference binding solution) following loading of various binding solutions. All of the binding solutions contained radioactively labeled AUUUA RNA either alone or including various other components. The first column represents a binding solution without RNA binding protein. The remaining columns represent binding solution containing RNA binding protein (K562 extract). Columns 3 through 8 correspond to binding solutions including the indicated test compound.
as §1
The library was initially screened at 10 μM against ^32P-labeled AUUUA RNA. Several methods of introducing the compounds into the binding reaction were tested. Initially the compounds were co-incubated with the RNA and protein, producing modest results. Next, preincubation with either the protein extract or the RNA was tried with improved results.
Seventeen compounds were chosen for further analysis at 100 nM, 1 μM and 10 μM using both AUUUA and IRE RNAs based on the results from three screening efforts (Exps. 29-31). Table 1 summarizes the results from these compounds at 10 μM. The results are also shown graphically in FIG. 4. […] Compounds D9 and H2, chosen as negative controls from the initial screening, continued to have no effect in the dose dependent screen (Exp. 33) and were identified as vehicle controls.
A 96 member random compound library was screened with the disclosed high throughput assay. The compounds were initially screened at 10 μM against ^32P-labeled AUUUA RNA. […] Seventeen compounds were chosen for further analysis at 100 nM, 1 μM and 10 μM using both AUUUA and IRE RNA molecules to determine if any selectivity of the compounds could be detected. […] Gel shifts of these compounds using AUUUA RNA confirmed the activity of the inhibitors.

TNF-α production = conditions: previously shown; cited from earlier work
[5] = compound 10 μM, K562 extract, RNA & K562 = 100.00

His wild-type RNA: His RNA, sequence AAAAAGGCUCUUUUCAGAGCCACCCA (SEQ ID NO:11) (listed as RNA, chemistry not given here)
competition by unlabeled RNA for binding of labeled His RNA (filter assay) [1]: concentration dependent inhibition of binding

U1 wild-type RNA: U1 RNA, sequence AAUCCAUUGCAC UCCGGAUUU (SEQ ID NO:10) (AAUCCAUUGCACUCCGGAUUU; listed as RNA, chemistry not given here)
competition by unlabeled RNA for binding of labeled U1 RNA (filter assay) [2]: concentration dependent inhibition of binding

[Cl][Fe]([Cl])[Cl] [FeCl3]
modulation of IRE/protein binding by small molecules [3]: concentration-dependent inhibition of binding

CC(=O)N(O)CCCCCNC(=O)CCC(=O)N(O)CCCCCNC(=O)CCC(=O)N(O)CCCCCN [Desferroxiamine, desferroxiamine]
modulation of IRE/protein binding by small molecules [3]: did not change the amount IRE/protein complex formed

hemin
modulation of IRE/protein binding by small molecules [3]: concentration-dependent inhibition of binding

C/C(=N\NC(=N)N)c1cc(NC(=O)CCCCCCCCC(=O)Nc2cc(/C(C)=N/NC(=N)N)cc(/C(C)=N/NC(=N)N)c2)cc(/C(C)=N/NC(=N)N)c1 [Compound G10, CNI-1493]
effect on counts over the 4 experiments ([4]; 10 μM): substantial increase in counts in 3 of the 4 experiments
Avg. % (labeled RNA retained on filter, average of Experiments #29-#31 and #33) ([4]; compound 10 μM, K562 extract): 111.00%
Labeled RNA retained on filter, percent of RNA & K562 reference, Experiment #29 [4, 5]: 114.53%
Labeled RNA retained on filter, percent of RNA & K562 reference, Experiment #30 [4, 5]: 66.94%
Labeled RNA retained on filter, percent of RNA & K562 reference, Experiment #31 [4, 5]: 127.28%
Labeled RNA retained on filter, percent of RNA & K562 reference, Experiment #33 [4, 5]: 135.24%
effect on TNF-α production (TNF-α production): post-transcriptionally inhibit TNF-α production

— patent US6465176B1, “Method for identifying compounds RNA/RNA binding protein interactions” (Message Pharmaceuticals, Inc., priority 1998, dated 2002)
